Reference: US20240116923A1, “USE OF INDOLE, 6- AND 7-AZAINDOLE DERIVATIVES AS INHIBITORS OF FERROPTOSIS REGULATED CELL DEATH” (Seabelife, priority 2021, published 2024)
Like-named read-outs stand apart in the source and are kept apart here.

Legend:
[1] = test system: human neuroblastoma cell line SH-SY5Y; test: Neurotoxicity assay, SH-SY5Y cells + erastin or RSL3, MTS cell viability; assay type: cell-based; settings: Homo sapiens
Description: (§1) The excitotoxicity model used was the mouse hippocampal neuronal HT22 cells treated with glutamate [Dixon et al., Cell, 2012, 149(5), 1060-1072]. Ferroptosis and oxidative stress are both associated in this glutamate-induced cell death [Chu et al., Neural Regen. Res., 2020, 15(3), 528-536]. Phenotypic screening was also carried out with additional cell death inducers, erastin and RSL3 ((1S,3R)-Ras-selective lethal), in HT22 and SH-SY5Y (human neuroblastoma cells). Erastin and RSL3 are well described molecules, used as chemical tools for the study of ferroptosis regulation and neuronal pathologies [Lewerenz et al., Front. Neurosci., 2018, 12: 214; Reichert et al., Int. J. Mol. Sci., 2020, 21, 8765].
(§2) Mouse hippocampal neuronal cell line (HT22, ATCC) and human neuroblastoma cell line (SH-SY5Y, ATCC) were grown in Dulbecco's Modified Eagle Medium (DMEM, Gibco) supplemented with 10% fetal bovine serum (FBS, Gibco) at 37° C. under 5% CO2 atmosphere. Neurotoxicity was induced by erastin or RSL3 and excitotoxicity was induced by glutamate. Cells were seeded in 96-well plates at 5,000 and 10,000 cells/well for HT22 and SH-SY5Y cell lines, respectively. Cells were treated with 0.5-1 μM Erastin (HT22 cells) or 10 μM Erastin (SH-SY5Y cells) or 5-10 mM glutamate (HT22 cells) or 0.5 μM RSL3 (HT22 cells) or 5 μM RSL3 (SH-SY5Y cells) for 24 h in presence of increasing concentrations of inhibitors. Cells treated with DMSO only were used as controls. Cell viability was assessed by MTS assay (CellTiter 96 AQueous One Solution Cell Proliferation assay, Promega).
(§3) In FIGS. 1, 2A and 2B, an inhibitor was added to HT22 (FIG. 1: compound 6) or SH-SY5Y (FIG. 2A: compound 6; FIG. 2B: compound 25) cells in the presence or not of cell death inducers (erastin, glutamate or RSL3). […] EC50 values for compounds 1-28 were calculated from dose-response curves using Graphpad Prism software.

[2] = test system: mouse hippocampal neuronal cell line HT22; test: Neurotoxicity and excitotoxicity assay, HT22 cells + glutamate, erastin or RSL3, MTS cell viability; assay type: cell-based; settings: Mus musculus
Description: as §1, §2, §3

[3] = SH-SY5Y cells, 10 μM Erastin, 24 h, MTS, read-out: EC50 SH-SY5Y Erastin
[4] = HT-22, HT22 cells, 0.5 μM RSL3, 24 h, MTS, read-out: EC50 HT22 RSL3
[5] = HT-22, HT22 cells, 0.5-1 μM Erastin, 24 h, MTS, read-out: EC50 HT22 Erastin
[6] = HT-22, HT22 cells, 5-10 mM glutamate, 24 h, MTS, read-out: EC50 HT22 Glutamate
[7] = SH-SY5Y cells, 5 μM RSL3, 24 h, MTS, read-out: EC50 SH-SY5Y RSL3
[8] = HT-22, 24 h, read-out: EC50 HT22 Erastin
[9] = HT-22, 24 h, read-out: EC50 HT22 Glutamate
[10] = HT-22, 24 h, read-out: EC50 HT22 RSL3
[11] = SH-SY5Y, 24 h, read-out: EC50 SH-SY5Y Erastin
[12] = SH-SY5Y, 24 h, read-out: EC50 SH-SY5Y RSL3

Compound: CCOc1ccc(-c2[nH]c3ncccc3c2C(O)C(F)(F)F)cc1 (stereo not drawn) [Compound 18, 1-(2-(4-ethoxyphenyl)-1H-pyrrolo[2,3-b]pyridin-3-yl)-2,2,2-trifluoroethan-1-ol]
- EC50 [1, 3]: > 50 µM

Compound: COc1ccc(-c2cc3ccccc3n2O)cc1 [Compound 3, 2-(4-methoxyphenyl)-1H-indol-1-ol]
- EC50 [2, 4]: 0.32 µM
- EC50 [2, 5]: 0.92 µM
- EC50 [2, 6]: 1.13 µM

Compound: CC(CO)(CO)C(=O)Oc1ccc(-c2cc3cccnc3[nH]2)cc1 [Compound 10, 4-(1H-pyrrolo[2,3-b]pyridin-2-yl)phenyl 3-hydroxy-2-(hydroxymethyl)-2-methylpropanoate]
- EC50 [2, 4]: > 50 µM
- EC50 [2, 5]: > 25 µM
- EC50 [2, 6]: > 25 µM
- EC50 [1, 3]: 13.7 µM

Compound: CCOc1ccc(-c2cc3c(Nc4ccccc4)ccnc3n2S(=O)(=O)c2ccccc2)cc1 [Compound 43, 2-(4-ethoxyphenyl)-N-phenyl-1-(phenylsulfonyl)-1H-pyrrolo[2,3-b]pyridin-4-amine]
- EC50 [2, 4]: 2.35 µM
- EC50 [2, 5]: 0.53 µM
- EC50 [1, 7]: 1.35 µM
- EC50 [1, 3]: 1.64 µM

Compound: CCOc1ccc(-c2cc3cccnc3n2CCN2CCOCC2)cc1 [Compound 20, 4-(2-(2-(4-ethoxyphenyl)-1H-pyrrolo[2,3-b]pyridin-1-yl)ethyl)morpholine]
- EC50 [2, 4]: 16.7 µM
- EC50 [2, 5]: 5.14 µM
- EC50 [2, 6]: 11.1 µM
- EC50 [1, 7]: 27.4 µM
- EC50 [1, 3]: 21.4 µM

Compound: CCOc1ccc(-c2cc3c(NCc4ccccc4)ccnc3[nH]2)cc1 [Compound 12, N-benzyl-2-(4-ethoxyphenyl)-1H-pyrrolo[2,3-b]pyridin-4-amine]
- EC50 [2, 4]: 0.94 µM
- EC50 [2, 5]: 0.91 µM
- EC50 [2, 6]: 0.5 µM
- EC50 [1, 3]: 0.43 µM

Compound: CCOc1ccc(-c2cc3cccn(C(=O)N(C(C)C)C(C)C)c-3n2)cc1 [Compound 24, 2-(4-ethoxyphenyl)-N,N-diisopropyl-7H-pyrrolo[2,3-b]pyridine-7-carboxamide]
- EC50 [2, 8]: > 50 µM
- EC50 [2, 9]: > 50 µM
- EC50 [2, 10]: 21 µM
- EC50 [1, 11]: 11 µM
- EC50 [1, 12]: 3.43 µM

Compound: CCOc1ccc(-c2cc3ccc(-c4cn[nH]c4)nc3[nH]2)cc1 [Compound 41, 2-(4-ethoxyphenyl)-6-(1H-pyrazol-4-yl)-1H-pyrrolo[2,3-b]pyridine]
- EC50 [2, 4]: 6.5 µM
- EC50 [1, 7]: 2.21 µM
- EC50 [1, 3]: 3.68 µM

Compound: Cn1c(-c2ccc(O)cc2)cc2ccccc21 [Compound 33, 4-(1-methyl-1H-indol-2-yl)phenol]
- EC50 [2, 4]: 10.8 µM
- EC50 [2, 5]: 32 µM
- EC50 [2, 6]: 16 µM

Compound: NCC(=O)Oc1ccc(-c2cc3cccnc3[nH]2)cc1 [Compound 8, 4-(1H-pyrrolo[2,3-b]pyridin-2-yl)phenyl glycinate]
- EC50 [2, 8]: > 25 µM
- EC50 [2, 9]: > 25 µM
- EC50 [2, 10]: > 50 µM
- EC50 [1, 11]: 21.5 µM
- EC50 [1, 12]: 5.98 µM

Compound: CCOc1ccc(-c2cc3ccc(OC(C)=O)nc3n2C(C)=O)cc1 [Compound 22, 1-acetyl-2-(4-ethoxyphenyl)-1H-pyrrolo[2,3-b]pyridin-6-yl acetate]
- EC50 [2, 4]: 9.09 µM
- EC50 [2, 5]: 5.53 µM
- EC50 [2, 6]: 5.31 µM
- EC50 [1, 7]: 0.79 µM
- EC50 [1, 3]: 1.16 µM

Compound: CCOc1ccc(-c2cc3ccc(Cc4ccncn4)nc3[nH]2)cc1 [Compound 42]
- EC50 [2, 4]: 7.06 µM
- EC50 [2, 5]: 8.04 µM
- EC50 [1, 7]: 1.84 µM
- EC50 [1, 3]: 3.62 µM

Compound: Oc1ccc2[nH]c(-c3ccc(OCc4ccccc4)cc3)cc2c1 [Compound 32, 2-(4-(benzyloxy)phenyl)-1H-indol-5-ol]
- EC50 [2, 4]: 1 µM
- EC50 [2, 5]: 2 µM

Compound: c1ccc(COc2ccc(-c3cc4ccccc4[nH]3)cc2)cc1 [Compound 31, 2-(4-(benzyloxy)phenyl)-1H-indole]
- EC50 [2, 8]: > 25 µM
- EC50 [2, 10]: > 15 µM

Compound: CCOc1ccc(-c2[nH]c3ncccc3c2CN2CCN(C)CC2)cc1 [Compound 16, 2-(4-ethoxyphenyl)-3-((4-methylpiperazin-1-yl)methyl)-1H-pyrrolo[2,3-b]pyridine]
- EC50 [1, 3]: > 50 µM

Compound: Oc1ccc(-c2cc3cc(Br)ccc3[nH]2)cc1 [Compound 30, 4-(5-bromo-TH-indol-2-yl)phenol]
- EC50 [2, 8]: 7.5 µM
- EC50 [2, 10]: 7.5 µM

Compound: CCOc1ccc(-c2[nH]c3ncccc3c2I)cc1 [Compound 17, 2-(4-ethoxyphenyl)-3-iodo-1H-pyrrolo[2,3-b]pyridine]
- EC50 [1, 3]: > 50 µM
